# Measurements published in PMC5218480 (PLoS ONE, 2017).
# System: MV-4-11 cells
# Assay: Gene expression microarray analysis (Affymetrix PrimeView) and GSEA
# Assay type: cell-based, human
# Set-up: RFU PODN (11730768_x_at) / Fold change /veh PODN (11730768_x_at) / RFU LINC00158 (11744669_a_at) / Fold change /veh LINC00158 (11744669_a_at) / RFU DUSP10 (11751237_a_at) / Fold change /veh DUSP10 (11751237_a_at) / RFU ID3 (11757404_x_at) / Fold change /veh ID3 (11757404_x_at) / RFU PLEKHG5 (11737974_s_at) / Fold change /veh PLEKHG5 (11737974_s_at) / RFU LRRC4B (11730491_at) / Fold change /veh LRRC4B (11730491_at) / RFU GIMAP4 (11747438_a_at) / Fold change /veh GIMAP4 (11747438_a_at) / RFU KRT8 (11758183_x_at) / Fold change /veh KRT8 (11758183_x_at) / RFU CNN1 (11734310_a_at) / Fold change /veh CNN1 (11734310_a_at) / RFU VPS37D (11726825_at) / Fold change /veh VPS37D (11726825_at) / RFU C10orf10 (11716522_x_at) / Fold change /veh C10orf10 (11716522_x_at) / RFU KIR2DL2 /// KIR2DL4 /// KIR2DL5A /// KIR2DL5B /// KIR2DS1 /// KIR2DS2 /// KIR2DS3 /// KIR2DS4 /// KIR3DL3 /// KIR3DL3 /// KIR3DS1 (11738374_at) / Fold change /veh KIR2DL2 /// KIR2DL4 /// KIR2DL5A /// KIR2DL5B /// KIR2DS1 /// KIR2DS2 /// KIR2DS3 /// KIR2DS4 /// KIR3DL3 /// KIR3DL3 /// KIR3DS1 (11738374_at) / RFU C1QL1 (11718748_at) / Fold change /veh C1QL1 (11718748_at) / RFU TMPRSS4 (11747572_a_at) / Fold change /veh TMPRSS4 (11747572_a_at) / RFU HAMP (11756126_x_at) / Fold change /veh HAMP (11756126_x_at) / RFU RNFT2 (11725882_a_at) / Fold change /veh RNFT2 (11725882_a_at) / RFU NR4A2 (11747474_a_at) / Fold change /veh NR4A2 (11747474_a_at) / RFU ABCC12 (11746883_a_at) / Fold change /veh ABCC12 (11746883_a_at) / RFU TMEM136 (11760407_x_at) / Fold change /veh TMEM136 (11760407_x_at) / RFU CLDN22 /// WWC2 (11732394_at) / Fold change /veh CLDN22 /// WWC2 (11732394_at) / RFU HLA-DPB1 (11760878_x_at) / Fold change /veh HLA-DPB1 (11760878_x_at) / RFU SPINT1 (11716480_a_at) / Fold change /veh SPINT1 (11716480_a_at) / RFU GAP43 (11754022_s_at) / Fold change /veh GAP43 (11754022_s_at) / RFU A4GNT (11735810_at) / Fold change /veh A4GNT (11735810_at) / RFU PRB3 (11715151_x_at) / Fold change /veh PRB3 (11715151_x_at) / RFU TUBB4B (11761932_at) / Fold change /veh TUBB4B (11761932_at) / RFU CAPN14 (11732068_a_at) / Fold change /veh CAPN14 (11732068_a_at) / RFU TMCC2 (11721928_a_at) / Fold change /veh TMCC2 (11721928_a_at) / RFU IRGQ (11745062_a_at) / Fold change /veh IRGQ (11745062_a_at) / RFU FAM174B (11720279_a_at) / Fold change /veh FAM174B (11720279_a_at) / RFU TMPRSS4 (11748680_a_at) / Fold change /veh TMPRSS4 (11748680_a_at) / RFU FAM212B (11763350_a_at) / Fold change /veh FAM212B (11763350_a_at) / RFU PLEKHG5 (11743358_a_at) / Fold change /veh PLEKHG5 (11743358_a_at) / RFU ZSCAN30 (11745921_a_at) / Fold change /veh ZSCAN30 (11745921_a_at) / RFU CMKLR1 (11741424_a_at) / Fold change /veh CMKLR1 (11741424_a_at) / RFU LOC101060620 /// MAPK8IP1 (11723275_at) / Fold change /veh LOC101060620 /// MAPK8IP1 (11723275_at) / RFU SPTSSB (11747773_x_at) / Fold change /veh SPTSSB (11747773_x_at) / RFU PRSS12 (11739890_at) / Fold change /veh PRSS12 (11739890_at) / RFU BIN1 (11741810_x_at) / Fold change /veh BIN1 (11741810_x_at) / RFU WNT11 (11732464_a_at) / Fold change /veh WNT11 (11732464_a_at) / RFU C10orf10 (11716521_a_at) / Fold change /veh C10orf10 (11716521_a_at) / RFU C5orf56 (11738089_at) / Fold change /veh C5orf56 (11738089_at) / RFU CYB561 (11721691_x_at) / Fold change /veh CYB561 (11721691_x_at) / RFU ANKRD19P (11752326_a_at) / Fold change /veh ANKRD19P (11752326_a_at) / RFU OR2T12 /// OR2T33 /// OR2T8 (11738714_s_at) / Fold change /veh OR2T12 /// OR2T33 /// OR2T8 (11738714_s_at) / RFU VCAN (11748164_a_at) / Fold change /veh VCAN (11748164_a_at) / RFU JSRP1 (11732532_at) / Fold change /veh JSRP1 (11732532_at) / RFU KRTAP10-11 (11738290_x_at) / Fold change /veh KRTAP10-11 (11738290_x_at) / RFU MYO3A (11730013_a_at) / Fold change /veh MYO3A (11730013_a_at) / RFU EBF3 (11725865_a_at) / Fold change /veh EBF3 (11725865_a_at) / RFU CAMK2N1 (11719241_x_at) / Fold change /veh CAMK2N1 (11719241_x_at) / RFU C5orf56 (11738088_a_at) / Fold change /veh C5orf56 (11738088_a_at) / RFU OLFML3 (11715873_a_at) / Fold change /veh OLFML3 (11715873_a_at) / RFU LOC100653217 /// NTM (11731650_a_at) / Fold change /veh LOC100653217 /// NTM (11731650_a_at) / RFU MAPK11 (11762145_a_at) / Fold change /veh MAPK11 (11762145_a_at) / RFU FIZ1 (11724087_x_at) / Fold change /veh FIZ1 (11724087_x_at) / RFU OASL (11726364_x_at) / Fold change /veh OASL (11726364_x_at) / RFU SOX15 (11748057_x_at) / Fold change /veh SOX15 (11748057_x_at) / RFU CD79A (11719716_a_at) / Fold change /veh CD79A (11719716_a_at) / RFU HIST1H1D (11736915_at) / Fold change /veh HIST1H1D (11736915_at) / RFU CASKIN2 (11723855_a_at) / Fold change /veh CASKIN2 (11723855_a_at) / RFU LOC730098 (11760151_x_at) / Fold change /veh LOC730098 (11760151_x_at) / RFU OR4N2 (11742367_at) / Fold change /veh OR4N2 (11742367_at) / RFU PRRT2 (11749266_a_at) / Fold change /veh PRRT2 (11749266_a_at) / RFU SNX32 (11753110_a_at) / Fold change /veh SNX32 (11753110_a_at) / RFU CDHR5 (11726645_a_at) / Fold change /veh CDHR5 (11726645_a_at) / RFU RCAN1 (11760418_a_at) / Fold change /veh RCAN1 (11760418_a_at) / RFU FAM167A (11723789_a_at) / Fold change /veh FAM167A (11723789_a_at) / RFU FAM26E (11764081_at) / Fold change /veh FAM26E (11764081_at) / RFU ISYNA1 (11749810_s_at) / Fold change /veh ISYNA1 (11749810_s_at) / RFU ACY1 (11761880_at) / Fold change /veh ACY1 (11761880_at) / RFU 11764098_at / Fold change /veh 11764098_at / RFU SAMD14 (11745864_x_at) / Fold change /veh SAMD14 (11745864_x_at) / RFU NPB (11741838_a_at) / Fold change /veh NPB (11741838_a_at) / RFU TMPRSS6 (11731388_a_at) / Fold change /veh TMPRSS6 (11731388_a_at) / RFU KRTAP10-2 (11738614_at) / Fold change /veh KRTAP10-2 (11738614_at) / RFU ARHGAP8 /// PRR5-ARHGAP8 (11727945_x_at) / Fold change /veh ARHGAP8 /// PRR5-ARHGAP8 (11727945_x_at) / RFU KRTAP5-7 /// NADSYN1 (11734609_at) / Fold change /veh KRTAP5-7 /// NADSYN1 (11734609_at) / RFU RASL12 (11751679_a_at) / Fold change /veh RASL12 (11751679_a_at) / RFU CDKN2B (11736163_a_at) / Fold change /veh CDKN2B (11736163_a_at) / RFU PRF1 (11729649_at) / Fold change /veh PRF1 (11729649_at) / RFU, ZNF638 /// ZNF638-IT1 / Fold change vs veh, ZNF638 /// ZNF638-IT1 / RFU, PANK3 / Fold change vs veh, PANK3 / RFU, SH3YL1 / Fold change vs veh, SH3YL1 / RFU, ZEB2 / Fold change vs veh, ZEB2 / RFU, NRIP1 / Fold change vs veh, NRIP1 / RFU, PTTG1IP / Fold change vs veh, PTTG1IP / RFU, CAPN2 / Fold change vs veh, CAPN2 / RFU, MED14 / Fold change vs veh, MED14 / RFU, SNORA58 / Fold change vs veh, SNORA58 / RFU, C1orf63 / Fold change vs veh, C1orf63 / RFU, LRRFIP1 / Fold change vs veh, LRRFIP1 / RFU, NDUFAF7 / Fold change vs veh, NDUFAF7 / RFU, SLC12A2 / Fold change vs veh, SLC12A2 / RFU, IBTK / Fold change vs veh, IBTK / RFU, ESF1 / Fold change vs veh, ESF1 / Fold change vs veh, TMEM50B / RFU, TAOK1 / Fold change vs veh, TAOK1 / RFU, ACBD3 / Fold change vs veh, ACBD3 / RFU, TMA16 / Fold change vs veh, TMA16 / RFU, RWDD3 / Fold change vs veh, RWDD3 / RFU, BCAT1 / Fold change vs veh, BCAT1 / RFU, EDEM3 / Fold change vs veh, EDEM3 / RFU, TMEM33 / Fold change vs veh, TMEM33 / RFU, WDR75 / Fold change vs veh, WDR75 / RFU, AHCTF1 / Fold change vs veh, AHCTF1 / RFU, TFRC / Fold change vs veh, TFRC / RFU, ZDHHC17 / Fold change vs veh, ZDHHC17 / RFU, NOM1 / Fold change vs veh, NOM1 / RFU, ARL8B / Fold change vs veh, ARL8B / RFU, ZBTB11 / Fold change vs veh, ZBTB11 / RFU, TAMM41 / Fold change vs veh, TAMM41 / RFU, KIAA1704 /// LOC100996395 / Fold change vs veh, KIAA1704 /// LOC100996395 / RFU, ING1 / Fold change vs veh, ING1 / RFU, TRMT61B / Fold change vs veh, TRMT61B / RFU, FUBP3 / Fold change vs veh, FUBP3 / RFU, TP53 / Fold change vs veh, TP53 / RFU, TNKS2 / Fold change vs veh, TNKS2 / RFU, ZFP14 / Fold change vs veh, ZFP14 / RFU, ACTR2 / Fold change vs veh, ACTR2 / RFU, PPP3R1 / Fold change vs veh, PPP3R1 / RFU, PIK3R1 / Fold change vs veh, PIK3R1 / RFU, HNRNPA1 / Fold change vs veh, HNRNPA1 / RFU, RNF170 / Fold change vs veh, RNF170 / RFU, ZNF28 / Fold change vs veh, ZNF28 / RFU, RNGTT / Fold change vs veh, RNGTT / RFU, OGT / Fold change vs veh, OGT / RFU, BRD1 / Fold change vs veh, BRD1 / RFU, MARS / Fold change vs veh, MARS / RFU, ZNF655 / Fold change vs veh, ZNF655 / RFU, FAHD1 / Fold change vs veh, FAHD1 / RFU, BDP1 / Fold change vs veh, BDP1 / RFU, LRRCC1 / Fold change vs veh, LRRCC1 / RFU, ARID1A / Fold change vs veh, ARID1A / RFU, ZNF146 / Fold change vs veh, ZNF146 / RFU, ZNF330 / Fold change vs veh, ZNF330 / RFU, GPN3 / Fold change vs veh, GPN3 / RFU, C9orf123 / Fold change vs veh, C9orf123 / RFU, N4BP2L2 / Fold change vs veh, N4BP2L2 / RFU, ARFIP1 / Fold change vs veh, ARFIP1 / RFU, FAM179B / Fold change vs veh, FAM179B / RFU, BCL10 / Fold change vs veh, BCL10 / RFU, UHRF1BP1L / Fold change vs veh, UHRF1BP1L / RFU, BET1 / Fold change vs veh, BET1 / RFU, CNOT2 / Fold change vs veh, CNOT2 / RFU, ZNF268 / Fold change vs veh, ZNF268 / Fold change vs veh, ZNF507 / RFU, DGCR2 / Fold change vs veh, DGCR2 / RFU, WDSUB1 / Fold change vs veh, WDSUB1 / Fold change vs veh, HSP90B1 /// MIR3652 / RFU, ADSS / Fold change vs veh, ADSS / RFU, GK / Fold change vs veh, GK / RFU, ZNF148 / Fold change vs veh, ZNF148 / RFU, TAF9 / Fold change vs veh, TAF9 / RFU, SLC1A5 / Fold change vs veh, SLC1A5 / RFU, SLMO2 / Fold change vs veh, SLMO2 / RFU, ABCC4 / Fold change vs veh, ABCC4 / RFU, LOC101060439 /// RAP1B / Fold change vs veh, LOC101060439 /// RAP1B / RFU, RFX7 / Fold change vs veh, RFX7 / RFU, GTPBP10 / Fold change vs veh, GTPBP10 / RFU, CNEP1R1 / Fold change vs veh, CNEP1R1 / RFU, BIVM-ERCC5 /// ERCC5 / Fold change vs veh, BIVM-ERCC5 /// ERCC5 / RFU, ILF3 / Fold change vs veh, ILF3 / RFU 11762660_at / Fold change /veh 11762660_at / RFU VCAN (11757783_s_at) / Fold change /veh VCAN (11757783_s_at) / RFU DDX43 (11728927_at) / Fold change /veh DDX43 (11728927_at) / RFU KRT8 (11758188_x_at) / Fold change /veh KRT8 (11758188_x_at) / RFU NKD1 (11759106_at) / Fold change /veh NKD1 (11759106_at) / RFU SRD5A1 (11742802_a_at) / Fold change /veh SRD5A1 (11742802_a_at) / RFU TPSAB1 /// TPSB2 (11721975_s_at) / Fold change /veh TPSAB1 /// TPSB2 (11721975_s_at) / RFU GSTM3 (11746129_a_at) / Fold change /veh GSTM3 (11746129_a_at) / RFU IL23R (11737362_x_at) / Fold change /veh IL23R (11737362_x_at) / RFU TMEM51 (11727254_a_at) / Fold change /veh TMEM51 (11727254_a_at) / RFU PIWIL2 (11732686_x_at) / Fold change /veh PIWIL2 (11732686_x_at) / RFU ORM1 (11744905_x_at) / Fold change /veh ORM1 (11744905_x_at) / RFU CCDC152 (11743942_at) / Fold change /veh CCDC152 (11743942_at) / RFU ECM1 (11717891_a_at) / Fold change /veh ECM1 (11717891_a_at) / RFU IL23R (11748794_a_at) / Fold change /veh IL23R (11748794_a_at) / RFU TNFAIP8L3 (11732012_x_at) / Fold change /veh TNFAIP8L3 (11732012_x_at) / RFU MBOAT4 (11741988_at) / Fold change /veh MBOAT4 (11741988_at) / RFU 11764193_at / Fold change /veh 11764193_at / RFU TMEM53 (11763286_at) / Fold change /veh TMEM53 (11763286_at) / RFU MAGEB2 (11727129_at) / Fold change /veh MAGEB2 (11727129_at) / RFU TMEM200A (11744735_a_at) / Fold change /veh TMEM200A (11744735_a_at) / RFU CCDC152 (11751479_a_at) / Fold change /veh CCDC152 (11751479_a_at) / RFU FAM211A (11726209_a_at) / Fold change /veh FAM211A (11726209_a_at) / RFU RGS16 (11746705_a_at) / Fold change /veh RGS16 (11746705_a_at) / RFU VCAN (11755009_s_at) / Fold change /veh VCAN (11755009_s_at) / RFU RHOB (11743442_s_at) / Fold change /veh RHOB (11743442_s_at) / RFU RGS16 (11720943_a_at) / Fold change /veh RGS16 (11720943_a_at) / RFU RGS16 (11720944_at) / Fold change /veh RGS16 (11720944_at) / RFU, VPS4B / Fold change vs veh, VPS4B / RFU, CREB1 / Fold change vs veh, CREB1 / RFU, DNAJC13 / Fold change vs veh, DNAJC13 / RFU, GNAQ / Fold change vs veh, GNAQ / RFU, CDK5R1 / Fold change vs veh, CDK5R1 / RFU, ZRANB3 / Fold change vs veh, ZRANB3 / RFU, CUL4A / Fold change vs veh, CUL4A / RFU, CCNY / Fold change vs veh, CCNY / RFU, UFL1 / Fold change vs veh, UFL1 / RFU, COG3 / Fold change vs veh, COG3 / RFU, DIAPH2 / Fold change vs veh, DIAPH2 / RFU, SKA2 / Fold change vs veh, SKA2 / RFU, AFF3 / Fold change vs veh, AFF3 / RFU, LMF1 / Fold change vs veh, LMF1 / RFU, IPO11 / Fold change vs veh, IPO11 / RFU, DFFB / Fold change vs veh, DFFB / RFU, FOXP1 / Fold change vs veh, FOXP1 / RFU, CARD8 / Fold change vs veh, CARD8 / RFU, STRN3 / Fold change vs veh, STRN3 / RFU, ADK / Fold change vs veh, ADK / RFU, RASSF2 / Fold change vs veh, RASSF2 / RFU, WIPF1 / Fold change vs veh, WIPF1 / RFU, LARP1B / Fold change vs veh, LARP1B / RFU, RASA1 / Fold change vs veh, RASA1 / RFU, RB1 / Fold change vs veh, RB1 / RFU, PPFIA1 / Fold change vs veh, PPFIA1 / RFU, MAT2A / Fold change vs veh, MAT2A / RFU, CCT5 / Fold change vs veh, CCT5 / RFU, WDR92 / Fold change vs veh, WDR92 / RFU, CUX1 / Fold change vs veh, CUX1 / RFU, TTC7A / Fold change vs veh, TTC7A / RFU, TMEM135 / Fold change vs veh, TMEM135 / RFU, DEPTOR / Fold change vs veh, DEPTOR / RFU, CPM / Fold change vs veh, CPM / RFU, DNAJB6 / Fold change vs veh, DNAJB6 / RFU, CACNA2D3 / Fold change vs veh, CACNA2D3 / RFU, DTX4 / Fold change vs veh, DTX4 / RFU, TFCP2 / Fold change vs veh, TFCP2 / RFU, GMCL1 /// GMCL1P1 / Fold change vs veh, GMCL1 /// GMCL1P1 / RFU, AEBP2 / Fold change vs veh, AEBP2 / RFU, SNHG1 /// SNORD22 /// SNORD25 /// SNORD26 /// SNORD27 /// SNORD28 /// SNORD29 /// SNORD31 / Fold change vs veh, SNHG1 /// SNORD22 /// SNORD25 /// SNORD26 /// SNORD27 /// SNORD28 /// SNORD29 /// SNORD31 / Fold change (Aza/veh), C12orf56 (ProbeSet 11735607_a_at) / Fold change (ACY-1035/veh), C12orf56 (ProbeSet 11735607_a_at) / Fold change (Aza/veh), FGFR1OP (ProbeSet 11751329_s_at) / Fold change (ACY-1035/veh), FGFR1OP (ProbeSet 11751329_s_at) / Fold change (Aza/veh), VPS36 (ProbeSet 11739960_a_at) / Fold change (ACY-1035/veh), VPS36 (ProbeSet 11739960_a_at) / RFU SYPL1 (11715823_x_at) / Fold change /veh SYPL1 (11715823_x_at) / RFU IGFBP7 (11715501_s_at) / Fold change /veh IGFBP7 (11715501_s_at) / RFU REEP3 (11722064_at) / Fold change /veh REEP3 (11722064_at) / RFU IGLL1 (11728026_x_at) / Fold change /veh IGLL1 (11728026_x_at): dose or concentration left out as unconfirmed
# Conditions: MV-4-11 cells, 48 hours
smiles,measurement,value
Nc1ncn([C@@H]2O[C@H](CO)[C@@H](O)[C@H]2O)c(=O)n1 [azacitidine],Fold change /veh OR4N2 (11742367_at),1.01
